Test results as given in US20250282736A1, “SMALL MOLECULE MODULATORS OF HUMAN PREGNANE X RECEPTOR” (ST. JUDE CHILDREN'S RESEARCH HOSPITAL, priority 2022, published 2025).
Where two headings read alike, the source gives them in different places.

Tests used:
hPXR [1] = biological target: T1, hPXR (Homo sapiens (Human), UniProt O75469); assay: hPXR binding assay; conditions: for inhibition at 10 µM: read-out: Binding (% inhibition at 10 μM)
hPXR [2] = biological target: T1, hPXR; assay: cell-based hPXR agonistic assay; conditions: for Agonist (% activation at 10 μM): rifampicin at 10 μM as 100% activation, DMSO (0.3%) as 0%
hPXR [3] = biological target: T1, hPXR; assay: cell-based hPXR antagonistic assay; conditions: for inhibition at 10 µM: read-out: Antagonist (% inhibition at 10 μM)
hPXR [4] = biological target: T1, hPXR; assay: cell-based hPXR inverse agonistic assay; conditions: for inhibition at 10 µM: read-out: Inverse agonist (% inhibition at 10 μM)
[5] = read-out: Binding (IC50/μM), hPXR binding assay
[6] = read-out: Agonist (EC50/μM), cell-based hPXR agonistic assay

T1 sequence (O75469 whole entry): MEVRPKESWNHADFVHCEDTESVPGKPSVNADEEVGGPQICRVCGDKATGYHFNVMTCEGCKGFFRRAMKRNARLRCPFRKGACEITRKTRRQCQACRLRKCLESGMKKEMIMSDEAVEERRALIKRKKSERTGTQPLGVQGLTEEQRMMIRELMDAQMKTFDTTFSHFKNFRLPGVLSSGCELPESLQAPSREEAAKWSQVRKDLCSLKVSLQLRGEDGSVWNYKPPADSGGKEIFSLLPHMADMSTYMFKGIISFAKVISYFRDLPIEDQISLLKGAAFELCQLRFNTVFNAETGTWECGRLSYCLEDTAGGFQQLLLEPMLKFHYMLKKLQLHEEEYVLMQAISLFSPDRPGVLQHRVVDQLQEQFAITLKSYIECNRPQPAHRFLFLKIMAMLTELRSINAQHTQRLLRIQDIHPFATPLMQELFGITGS

Row | SMILES | inhibition at 10 µM (hPXR [1]) [%] | IC50 (hPXR [1]; [5]) [µM] | Agonist (% activation at 10 μM) (hPXR [2]) | EC50 (hPXR [2]; [6]) [µM] | IC50 (hPXR [3]) [nM] | IC50 (hPXR [4]) [nM] | EC50 (hPXR [2]) [µM] | IC50 (hPXR [1]) [µM] | inhibition at 10 µM (hPXR [3]) [%] | inhibition at 10 µM (hPXR [4]) [%]
1 | CCCCOc1ccc(C(C)(C)C)cc1NC(=O)c1nnn(-c2cc(OC)ccc2F)c1C [H8] | 18 | 0.053 ± 0.036 | (48 ± 1)% | 1.48 ± 0.17 | > 30000 | > 30000 | – | – | – | –
2 | CCCCOc1ccc(C(C)(C)C)cc1NC(=O)c1nnn(-c2cc(OC)ccc2Br)c1C [H10] | 28 | 1.31 | – | – | > 30000 | > 30000 | > 30 | – | – | –
3 | CCCCOc1ccc(C(C)(C)C)cc1NC(=O)c1nnn(-c2cc(OC)ccc2C)c1C [H11] | 10 | 0.12 | (16 ± 6)% | – | > 30000 | > 30000 | 1.68 ± 0.34 | – | – | –
4 | CCCCOc1ccc(C(C)(C)C)cc1NC(=O)c1nnn(-c2cccnc2)c1C [H12] | 75 | 7.6 ± 2.06 | (44 ± 4)% | 4.28 ± 1.36 | > 30000 | > 30000 | – | – | – | –
5 | CCCCOc1ccc(C(C)(C)C)cc1NC(=O)c1nnn(-c2ccncc2)c1C [H13] | – | – | – | – | > 30000 | > 30000 | > 30 | > 30 | – | –
6 | CCCCOc1ccc(C(C)(C)C)cc1NC(=O)c1nnn(-c2cc(OC)cc(OC)c2)c1C [H16] | – | – | (32 ± 4)% | 2.77 ± 0.47 | > 30000 | > 30000 | – | > 30 | – | –
7 | CCCCOc1ccc(C(C)(C)C)cc1NC(=O)c1nnn(-c2ccc3c(c2)OCO3)c1C [H18] | – | – | (43 ± 8)% | 4.61 ± 1.18 | > 30000 | > 30000 | – | > 30 | – | –
8 | CCCC(CC)Oc1ccc(C(C)(C)C)cc1NC(=O)c1nnn(-c2ccccc2OC)c1C (centres unmarked) [I1] | 89 | 0.0062 ± 0.0001 | (8 ± 2)% | – | 31 | > 30000 | 0.01 | – | 84 | –
9 | CCCC(C)Oc1ccc(C(C)(C)C)cc1NC(=O)c1nnn(-c2ccccc2OC)c1C (centres unmarked) [I2] | 88 | 0.0072 ± 0.0001 | (23 ± 19)% | – | 32 | > 30000 | 0.049 ± 0.008 | – | 78 | –
10 | CCC(C)Oc1ccc(C(C)(C)C)cc1NC(=O)c1nnn(-c2ccccc2OC)c1C (centres unmarked) [I3] | 88 | 0.0085 ± 0.0011 | (25 ± 3)% | – | 61 ± 11 | > 30000 | 0.066 ± 0.013 | – | 66 | –
11 | COc1ccc(OC)c(-n2nnc(C(=O)Sc3ccc(NC(C)=O)cc3)c2C)c1 [K2] | 38 | 8.47 ± 0.78 | – | – | > 30000 | > 30000 | > 30 | – | – | –
12 | COc1ccc(OC)c(-n2nnc(NC(=O)Nc3ccc(C(C)(C)C)cc3)c2C)c1 [K3] | – | – | (61 ± 4)% | – | > 30000 | > 30000 | 3.39 ± 0.14 | > 30 | – | –
13 | COc1ccc(OC)c(-n2nnc(NC(=O)Nc3cccc(C(C)(C)C)c3)c2C)c1 [K4] | 24 | 0.39 ± 0.19 | (103 ± 5)% | – | > 30000 | > 30000 | 1.45 ± 0.25 | – | – | –
14 | COc1ccc(OC)c(-n2nnc(C(=O)NS(=O)(=O)c3ccc(C(C)(C)C)cc3)c2C)c1 [K5, N-((4-(tert-butyl)phenyl)sulfonyl)-1-(2,5-dimethoxyphenyl)-5-methyl-1H-1,2,3-triazole-4-carboxamide] | 43 | 10.7 ± 0.23 | (32 ± 2)% | – | > 30000 | > 30000 | 7.46 ± 1.11 | – | – | –
15 | COc1ccc(OC)c(-n2nnc(S(=O)(=O)Nc3cccc(C(C)(C)C)c3)c2C)c1 [K6, N-(3-(tert-butyl)phenyl)-1-(2,5-dimethoxyphenvl)-5-methyl-1H-1,2,3-triazole-4-sulfonamide] | 97 | 0.0147 ± 0.0026 | (136 ± 26)% | – | > 30000 | > 30000 | 0.021 | – | – | –
16 | COc1ccc(OC)c(-n2nnc(NS(=O)(=O)c3ccc(C(C)(C)C)cc3)c2C)c1 [K7] | 92 | 0.33 | (68 ± 5)% | – | 10700 ± 2390 | > 30000 | 0.39 | – | 25 | –
17 | COc1ccc(OC)c(-n2nnc(N(S(=O)(=O)c3ccc(C(C)(C)C)cc3)S(=O)(=O)c3ccc(C(C)(C)C)cc3)c2C)c1 [K8] | 70 | 0.14 | (21 ± 3)% | – | 1450 ± 200 | > 30000 | 0.19 | – | 49 | –
18 | COc1ccc(OC)c(-n2nnc(C(=O)Nc3cc(OCCOCCOCCOCCNC(=O)CCCC[C@@H]4SC[C@@H]5NC(=O)N[C@@H]54)cc(C(C)(C)C)c3)c2C)c1 [L1] | – | – | – | – | 5440 ± 1000 | > 30000 | > 30 | > 30 | 40 | –
19 | CCC[C@H](CC)Oc1ccc(C(C)(C)C)cc1NC(=O)c1nnn(-c2cc(OC)ccc2OC)c1C [M1, (S)—N-(5-(Tert-Butyl)-2-(Hexan-3-yloxy)Phenyl)-1-(2,5-Dimethoxyphenyl)-5-Methyl-1H-1,2,3-Triazole-4-Carboxamide] | 93 | 0.015 ± 0.003 | – | – | 6.9 ± 0.5 | 1.1 ± 0.5 | > 30 | – | 105 | 165
20 | CCC[C@@H](CC)Oc1ccc(C(C)(C)C)cc1NC(=O)c1nnn(-c2cc(OC)ccc2OC)c1C [M2, (R)—N-(5-(Tert-Butyl)-2-(Hexan-3-yloxy)Phenyl)-1-(2,5-Dimethoxyphenyl)-5-Methyl-1H-1,2,3-Triazole-4-Carboxamide] | 88 | 0.019 ± 0.003 | – | – | 52 ± 10 | 8.4 ± 4 | > 30 | – | 103 | 130
21 | CCC[C@H](CC)Oc1ccccc1NC(=O)c1nnn(-c2cc(OC)ccc2OC)c1C [M3, (S)-1-(2,5-Dimethoxyphenyl)-N-(2-(Hexan-3-yloxy)Phenyl)-5-Methyl-1H-1,2,3-Triazole-4-Carboxamide] | 77 | 0.013 ± 0.003 | – | – | 33 ± 4 | 3.4 ± 0.3 | > 30 | – | 107 | 106
22 | CCC[C@H](CC)Oc1ccc(C(=O)OC)cc1NC(=O)c1nnn(-c2cc(OC)ccc2OC)c1C [M4, Methyl (S)-3-(1-(2,5-Dimethoxyphenyl)-5-Methyl-1H-1,2,3-Triazole-4-Carboxamido)-4-(Hexan-3-yloxy)Benzoate] | 84 | – | – | – | 6 | 1 | > 30 | 0.003 | 112 | 142
23 | CCC[C@H](CC)Oc1ccc(C(C)(C)C)cc1NC(=O)c1nnn(-c2cc(OC)c(OC)cc2OC)c1C [M9, (S)—N-(5-(Tert-Butyl)-2-(Hexan-3-yloxy)Phenyl)-5-Methyl-1-(2,4,5-Trimethoxyphenyl)-1H-1,2,3-Triazole-4-Carboxamide] | 91 | 0.0078 ± 0.0001 | (69 ± 4)% | – | 120 ± 10 | > 30000 | 0.013 ± 0.01 | – | 32 | –
24 | CCC[C@H](CC)Oc1ccc(C(C)(C)C)cc1NC(=O)c1nnn(-c2cc(OC)c(F)cc2OC)c1C [M10, (S)—N-(5-(Tert-Butyl)-2-(Hexan-3-yloxy)Phenyl)-1-(4-Fluoro-2,5-Dimethoxyphenyl)-5-Methyl-1H-1,2,3-Triazole-4-Carboxamide] | 92 | 0.02 ± 0.005 | – | – | 23 ± 3 | 4.4 ± 1.5 | > 30 | – | 104 | 92
25 | CCC[C@H](CC)Oc1ccc(C(C)(C)C)cc1NC(=O)c1nnn(-c2cc(C)c(OC)cc2OC)c1C [M11, (S)—N-(5-(Tert-Butyl)-2-(Hexan-3-yloxy)Phenyl)-1-(2,4-Dimethoxy-5-Methylphenyl)-5-Methyl-1H-1,2,3-Triazole-4-Carboxamide] | 94 | – | (92 ± 8)% | – | 65000 ± 28000 | > 30000 | 0.0066 ± 0.0002 | 0.045 ± 0.013 | 15 | –
26 | CCC[C@H](CC)Oc1ccc(C(C)(C)C)cc1NC(=O)c1nnn(-c2cc(Cl)c(Cl)cc2OC)c1C [M12, (S)—N-(5-(Tert-Butyl)-2-(Hexan-3-yloxy)Phenyl)-1-(4,5-Dichloro-2-Methoxyphenyl)-5-Methyl-1H-1,2,3-Triazole-4-Carboxamide] | 90 | 0.23 ± 0.1 | – | – | 320 ± 20 | 65 ± 39 | > 30 | – | 99 | 97
